Assay results from US20040067904A1, “Gene therapy for prostate cancer: sensibilization of cells to dna damaging drugs and radiation” (priority 2003, published 2004).

Legend:
[1] = tested on: LNCaP cells stably transfected with pPSA (e/p)-DBD/F; assay: Androgen-regulated PARP-DBD expression (Western blot, RT-PCR, in situ immunofluorescence) in stably transfected LNCaP cells; type: cell-based, human; conditions: R1881 0-10 nM, 24 hours, charcoal-stripped serum for seven days
Experimental: The androgen responsive prostate carcinoma LNCaP and androgen independent PC-3 cell lines were obtained from American Type Culture Collection (Manassas, Va.) and maintained by serial passage in DMEM supplemented with 10% fetal bovine serum, 100 units/ml penicillin, and 100 μg/ml streptomycin at 37° C. in an atmosphere of 5% CO2 in air. Cells subjected to androgen stimulation tests were maintained in media with 10% charcoal-stripped fetal bovine serum for seven days before the addition of synthetic androgen R1881 (Perkin Elmer Life Science). […]
RNA was isolated from cells using TRIzol Reagent (Gibco) according to manufacturer's protocol. […] The amplified RT-PCR products were analyzed by 1% agarose gel electrophoresis, visualized by ethidium bromide staining and photographed under UV illumination.
Immunodetection of PARP-DBD Flag-fusion protein in human prostate carcinoma cells was performed as previously described (Soldatenkov et al., Cancer J Sci. Am., 3: 13-20 (1997)). […] Insoluble material was removed by centrifugation at […] for 30 min at 16,000×g and protein concentrations were determined using the “Micro BCA protein assay” (Pierce). […] Signals were detected using the enhanced chemiluminescence system (Amersham). […]

LNCaP cells = assay: Annexin V cell death assay (flow cytometry); type: cell-based, human; conditions: parental LNCaP cells and un-induced LNCaP-DBD sublines; etoposide 10 μM; 24 h
Experimental: Surface expression of phosphadtidyl serine was determined by Annexin V staining (Trevigen) according to the manufacturer's recommendations. Briefly, LNCaP cells (2-5×10^5) were harvested, washed in PBS and exposed to FITC-labeled Annexin V. To exclude staining of phosphadtidyl serine on the inner surface of the cell membrane, indicative of cytoplasmic membrane disintegration, cells were counterstained with propidium iodite. FITC-Annexin V and propidium iodite staining was determined using a FACStar Plus flow cytometer (Becton Dickinson FACS System). Apoptotic cells were defined as FITC positive and PI negative.

plasmid DNA fragments = assay: Atomic force microscopy of PARP / PARP-DBD interaction with DNA; type: binding
Experimental: DNA samples or PARP-DNA binding reaction product in Mg^2+containing buffer were deposited on an […] mica surface, allowed to adsorb for 1 min, rinsed with deionized water, and dried in a gentle nitrogen flow. The AFM images were obtained using a NanoScope IIIa instrument equipped with E-scanner (Digital Instruments, Santa Barbara, Calif.) operating in a tapping mode in air as described (Smulson et al., Cancer Res., 58: 3495-3498 (1998)). The tapping frequency of the 125 μm silicon cantilever was 300-400 KHz and the nominal scanning rate was set at 1-2 Hz. No less than 150 uncomplexed DNA molecules and 100 of PARP-DNA complexes were analyzed in each experiment.

## C[C@]1(O)CC[C@H]2[C@@H]3CCC4=CC(=O)CCC4=C3C=C[C@@]21C [R1881]
[1]
  stimulation of PARP-DBD expression at levels of mRNA and protein: dose-dependent stimulation

## COc1cc([C@@H]2c3cc4c(cc3[C@@H](O[C@@H]3O[C@@H]5CO[C@@H](C)O[C@H]5[C@H](O)[C@H]3O)[C@H]3COC(=O)[C@H]23)OCO4)cc(OC)c1O [etoposide]
LNCaP cells
  annexin V-binding activity (early apoptotic changes): only modest increase

## Poly(ADP-ribose) polymerase [recombinant full length PARP]
Plasmid DNA fragments; absence of NAD+
  binding to DNA fragments (AFM): bound plasmid DNA fragments and linked them into chainlike structures
Plasmid DNA fragments; presence of NAD+
  binding to DNA fragments (AFM): dissociated from the DNA fragments
